This assay addresses T1, full-length human PHD1 (selectivity versus full-length human PHD2) (Homo sapiens, UniProt Q96KS0).
T1 construct: purchased Active Motif (Carlsbad, CA, USA) 81064; host or cells: baculovirus expression system
As to the kind of experiment: TR-FRET assay of PHD enzymes (IC50; Ki by Cheng-Prusoff; selectivity as ratio of Kis). Format: biochemical. As to conditions: ratio of Kis in the PHD1 and PHD2 TR-FRET assays; Ki=IC50/(1+[2-OG]/Km), 1 uM 2-OG. An excerpt:
Time-resolved fluorescence resonance energy transfer (TR-FRET) assay was utilized to determine the enzymatic half maximal inhibitory concentration (IC50) value of PHD inhibitors against the full-length human prolyl-4-hydroxylase domain (PHD) enzymes, PHD1 and PHD2. The TR-FRET assay was developed based on the specific binding of hydroxylated HIF-1α peptide with the complex formed by VHL, EloB and EloC (VBC), to generate a fluorescent signal. Terbium (Tb)-Donor (monoclonal antibody anti-6His-Tb-cryptate Gold) and D2-acceptor (streptavidin [SA]-D2) of TR-FRET are linked to the VBC complex and to HIF-1a peptide, respectively. The VBC complex binds specifically to the HIF-1a peptide when it is hydroxylated, allowing energy transfer from TR-FRET donor to acceptor (FIG. 1).
TR-FRET Reagents. Monoclonal antibody anti-6His-Tb-cryptate Gold (catalog #61HI2TLA) and streptavidin (SA)-D2 (catalog #610SADLA) were purchased from CisBio International (Bedford, MA, USA).
N-terminus biotinylated HIF-1α C35 synthetic peptide representing amino acids 547 to 581 and including the proline 564 PHD2 hydroxylation site was purchased from California Peptide Research (Salt Lake City, UT, USA).
VBC complex. His-tagged recombinant VHL protein, EloB, EloC complex (His-VBC) was supplied by Axxam (Milan, Italy). Recombinant human VHL (National Center for Biotechnology Information [NCBI] accession number NP_00542.1) contained a His tag at the C-terminus of amino acids 55 to 213 and is referred to as VHL-His. VHL-His was co-expressed in E. coli with full-length human EloB (NCBI accession number Q15370.1) and full-length human EloC (NCBI accession number Q15369.1) and purified by affinity chromatography on a nickel-nitrilotriacetic acid (Ni-NTA) column as the His-VBC complex. Purity (˜80%) was assessed by sodium dodecyl sulfate polyacrylamide gel electrophoresis (SDS-PAGE).
PHD1. Recombinant human PHD1 protein (catalog #81064, Lot #24717001) was purchased from Active Motif (Carlsbad, CA, USA). PHD1 was expressed in a baculovirus expression system as the full-length protein (NCBI accession number NP_542770.2) with an N-terminal FLAG tag (molecular weight 44.9 kDa). Purity (>90%) was assessed by SDS-PAGE.
PHD2. The full-length human PHD2 enzyme was produced with a baculovirus infected insect cell (BIIC) expression system by Beryllium (Bedford, MA, USA). The PHD2 construct contained amino acids 1 to 426 of PHD2 (UniProt Knowledgebase[UniProtKB]/Swiss-Prot accession number Q9GZT9.1), and a His tag and a Tobacco Etch Virus (TEV) protease cleavage site at the N-terminus. The construct was expressed in Sf9 insect cells, purified by Ni-NTA column and digested with TEV protease to remove the His tag.
TR-FRET Assay Procedure. PHD inhibitor compound was preincubated with PHD enzyme in a 10 μL reaction volume in white 384-well Optiplate microplates (catalog #6007290, Perkin Elmer, Waltham, MA, USA). For this, 5 μL of PHD inhibitor compound was serially diluted with dilution buffer (50 mM HEPES [4-(2-hydroxyethyl)-1-piperazineethanesulfonic acid] pH 7.5, 50 mM sodium chloride [NaCl], 0.01% Tween-20, 0.01% purified bovine serum albumin [BSA]) and mixed with 5 μL PHD enzyme mix prepared as a 4× concentrate in the dilution buffer containing PHD enzyme (60 nM PHD1, 20 nM PHD2, 140 nM PHD3), 40 μM ferrous ammonium sulfate (FAS), 4 mM sodium (Na) ascorbate. The plates were incubated for 30 minutes at room temperature without rotation.
Five microliters of the VBC/anti-6His-Tb-cryptate Gold mix prepared as a 4× concentrate in dilution buffer containing 20 nM His-VBC, 1.32 nM monoclonal antibody anti-6His-Tb-cryptate Gold was then added. This step was followed immediately by the addition of […] of the HIF-1a C35 substrate mix prepared as a 4× concentrate in the dilution buffer containing 120 nM biotin-labeled HIF-1a C35, 132 nM SA-D2, 4 μM 2-oxoglutarate (2-OG) to reach a final reaction volume of 20 μL. […]
A general note: TR-FRET usually uses a lanthanide donor and a delayed reading to cut background.
T1 sequence (Q96KS0 whole entry): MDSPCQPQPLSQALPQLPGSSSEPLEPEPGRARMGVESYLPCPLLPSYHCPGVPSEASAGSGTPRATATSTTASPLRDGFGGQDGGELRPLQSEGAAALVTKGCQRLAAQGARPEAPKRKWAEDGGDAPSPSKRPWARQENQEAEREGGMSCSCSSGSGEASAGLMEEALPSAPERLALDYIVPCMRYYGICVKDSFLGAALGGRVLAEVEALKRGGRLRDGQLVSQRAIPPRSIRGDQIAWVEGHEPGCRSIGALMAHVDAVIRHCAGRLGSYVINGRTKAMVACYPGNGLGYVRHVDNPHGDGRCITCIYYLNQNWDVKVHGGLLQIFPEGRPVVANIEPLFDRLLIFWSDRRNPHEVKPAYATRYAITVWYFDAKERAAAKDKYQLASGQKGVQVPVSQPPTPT
Take `O=C(NCC1(C(=O)O)CCOCC1)c1ncc(-c2cnn(-c3ccccc3)c2)cc1O` [Compound 14, 4-((3-hydroxy-5-(1-phenyl-1H-pyrazol-4-yl)picolinamido)methyl)tetrahydro-2H-pyran-4-carboxylic acid]: the “Selectivity of PHD1 over PHD2” value is recorded as about 51 fold.

With `O=C(NCC1(C(=O)O)CCC1)c1ncc(-c2ccc3ccccc3c2)cc1O` [Compound 2, 1-((3-hydroxy-5-(naphthalen-2-yl)picolinamido)methyl)cyclobutane-1-carboxylic acid], the “Selectivity of PHD1 over PHD2” value is reported as about 1258 fold.

On to `O=C(NCC1(C(=O)O)CCC1)c1ncc(-c2cnn(-c3ccccc3)c2)cc1O` [Compound 12, 1-((3-hydroxy-5-(1-phenyl-1H-pyrazol-4-yl)picolinamido)methyl)cyclobutane-1-carboxylic acid], for which the “Selectivity of PHD1 over PHD2” value is on record as about 36 fold.

Turning to `O=C(NC[C@@H](O)C(=O)O)c1ncc(-c2cnn(-c3ccccc3)c2)cc1O` [Compound 11, (R)-2-hydroxy-3-(3-hydroxy-5-(1-phenyl-1H-pyrazol-4-yl)picolinamido)propanoic], the “Selectivity of PHD1 over PHD2” value is about 42 fold.

As for `O=C(NCC1(C(=O)O)CC1)c1ncc(-c2cnn(-c3ccccc3)c2)cc1O` [Compound 5, 1-((3-hydroxy-5-(1-phenyl-1H-pyrazol-4-yl)picolinamido)methyl)cyclopropane-1-carboxylic acid], the “Selectivity of PHD1 over PHD2” value is on record as about 61 fold.

As to `O=C(O)CC1(NC(=O)c2ncc(-c3cnn(-c4ccccc4)c3)cc2O)CCC1` [Compound 16, 2-(1-(3-hydroxy-5-(1-phenyl-1H-pyrazol-4-yl)picolinamido)cyclobutyl)acetic acid], the “Selectivity of PHD1 over PHD2” value is listed as about 2 fold.

As to `O=C(NCC1(C(=O)O)CC1)c1ncc(-c2cccc(Cl)c2)cc1O` [Compound 3, 1-((5-(3-chlorophenyl)-3-hydroxypicolinamido)methyl)cyclopropane-1-carboxylic acid], the “Selectivity of PHD1 over PHD2” value is about 338 fold.

With `O=C(NC[C@@H](O)C(=O)O)c1ncc(-c2ccc3ccccc3c2)cc1O` [Compound 8, (R)-2-hydroxy-3-(3-hydroxy-5-(naphthalen-2-yl)picolinamido)propanoic acid], the “Selectivity of PHD1 over PHD2” value is about 100 fold.

For `O=C(NCC1(C(=O)O)CCCCC1)c1ncc(-c2cnn(-c3ccccc3)c2)cc1O` [Compound 13, 1-((3-hydroxy-5-(1-phenyl-1H-pyrazol-4-yl)picolinamido)methyl)cyclohexane-1-carboxylic acid], the “Selectivity of PHD1 over PHD2” value is on record as about 2 fold.

On to `O=C(NC[C@H](O)C(=O)O)c1ncc(-c2cnn(-c3ccccc3)c2)cc1O` [Compound 10, (S)-2-hydroxy-3-(3-hydroxy-5-(1-phenyl-1H-pyrazol-4-yl)picolinamido)propanoic acid], for which the “Selectivity of PHD1 over PHD2” value is reported as about 29 fold.

On to `O=C(NC[C@H](O)C(=O)O)c1ncc(-c2ccc3ccccc3c2)cc1O` [Compound 7, (S)-2-hydroxy-3-(3-hydroxy-5-(naphthalen-2-yl)picolinamido)propanoic acid], for which the “Selectivity of PHD1 over PHD2” value is on record as about 16 fold.

For the compound `O=C(NC[C@H](O)C(=O)O)c1ncc(-c2cccc(Cl)c2)cc1O` [Compound 6, (S)-3-(5-(3-chlorophenyl)-3-hydroxypicolinamido)-2-hydroxypropanoic acid], the “Selectivity of PHD1 over PHD2” value was about 11 fold.

For `O=C(NC[C@@H](O)C(=O)O)c1ncc(-c2cccc(Cl)c2)cc1O` [Compound 9, (R)-3-(5-(3-chlorophenyl)-3-hydroxypicolinamido)-2-hydroxypropanoic acid], the “Selectivity of PHD1 over PHD2” value is listed as about 13 fold.

As to `O=C(NCC1(C(=O)O)CC1)c1ncc(-c2ccc3ccccc3c2)cc1O` [Compound 1, 1-((3-hydroxy-5-(naphthalen-2-yl)picolinamido)methyl)cyclopropane-1-carboxylic acid], the “Selectivity of PHD1 over PHD2” value is given as about 219 fold.

As to `O=C(NCC1(C(=O)O)CCC1)c1ncc(-c2cccc(Cl)c2)cc1O` [Compound 4, 1-((5-(3-chlorophenyl)-3-hydroxypicolinamido)methyl)cyclobutane-1-carboxylic acid], the “Selectivity of PHD1 over PHD2” value is reported as about 6 fold.

Regarding `O=C(NCC1(C(=O)O)CCCC1)c1ncc(-c2cnn(-c3ccccc3)c2)cc1O` [Compound 17, 1-((3-hydroxy-5-(1-phenyl-1H-pyrazol-4-yl)picolinamido)methyl)cyclopentane-1-carboxylic acid], the “Selectivity of PHD1 over PHD2” value is given as about 8 fold.

As for `O=C(O)CC1(NC(=O)c2ncc(-c3cnn(-c4ccccc4)c3)cc2O)CC1` [Compound 15, 2-(1-(3-hydroxy-5-(1-phenyl-1H-pyrazol-4-yl)picolinamido)cyclopropyl)acetic acid], the “Selectivity of PHD1 over PHD2” value is reported as about 10 fold.

(Values after patent publication US20240327376A1, “PICOLINAMIDE COMPOUNDS AS SELECTIVE PHD1 INHIBITORS, COMPOSITIONS, AND METHODS OF USE” (Akebia Therapeutics, Inc., priority 2021, published 2024).)
